One assay addresses rnADAMTS-5 (1-564-6H) (Rattus norvegicus, UniProt Q6TY19). The conditions noted are these: read-out: Rat ADAMTS-5 potency IC50.
The target of the next assay is human TACE (Homo sapiens (Human), UniProt P78536). The conditions noted are these: read-out: TACE potency IC50.
Assay [1] addresses T1, human MMP13 (Homo sapiens (Human), UniProt P45452). The settings on record: read-out: hMMP-13 potency IC50.
Experimental: The reaction is initiated by adding to the assay plate 520 MMP-fret substrate XV (10 μL, 4 μM) in the same buffer.
The target of assay [2] is T2, human ADAMTS-5 (Homo sapiens (Human), UniProt Q9UNA0). The settings on record: read-out: hADAMTS-5 potency IC50.
Assay [3] deals with T1, human MMP13. The settings on record: read-out: hMMP-13 potency IC50. This is another data set of the same source.
Experimental: Human MMP13 is preactivated by incubated the enzyme in the same buffer complemented with 1 mM freshly prepared p-Aminophenylmercuric acetate (AMPA) for 1 hour at 37° C.
The target of a further assay is human MMP14 (Homo sapiens (Human), UniProt P50281). The settings on record: read-out: hMMP-14 potency IC50.
For assay [4], the target named is T2, human ADAMTS-5. The settings on record: read-out: hADAMTS-5 potency IC50. The source holds these as a separate data set.
Experimental: Finally, the fluorescence is read on the Envision (Perkin Elmer) after an incubation of 90 min at 37° C.

SMILES strings stand for the structures. Like-named read-outs stand apart in the source and are kept apart here.

Chain of human TACE (P78536 whole entry, looked up, change not shown): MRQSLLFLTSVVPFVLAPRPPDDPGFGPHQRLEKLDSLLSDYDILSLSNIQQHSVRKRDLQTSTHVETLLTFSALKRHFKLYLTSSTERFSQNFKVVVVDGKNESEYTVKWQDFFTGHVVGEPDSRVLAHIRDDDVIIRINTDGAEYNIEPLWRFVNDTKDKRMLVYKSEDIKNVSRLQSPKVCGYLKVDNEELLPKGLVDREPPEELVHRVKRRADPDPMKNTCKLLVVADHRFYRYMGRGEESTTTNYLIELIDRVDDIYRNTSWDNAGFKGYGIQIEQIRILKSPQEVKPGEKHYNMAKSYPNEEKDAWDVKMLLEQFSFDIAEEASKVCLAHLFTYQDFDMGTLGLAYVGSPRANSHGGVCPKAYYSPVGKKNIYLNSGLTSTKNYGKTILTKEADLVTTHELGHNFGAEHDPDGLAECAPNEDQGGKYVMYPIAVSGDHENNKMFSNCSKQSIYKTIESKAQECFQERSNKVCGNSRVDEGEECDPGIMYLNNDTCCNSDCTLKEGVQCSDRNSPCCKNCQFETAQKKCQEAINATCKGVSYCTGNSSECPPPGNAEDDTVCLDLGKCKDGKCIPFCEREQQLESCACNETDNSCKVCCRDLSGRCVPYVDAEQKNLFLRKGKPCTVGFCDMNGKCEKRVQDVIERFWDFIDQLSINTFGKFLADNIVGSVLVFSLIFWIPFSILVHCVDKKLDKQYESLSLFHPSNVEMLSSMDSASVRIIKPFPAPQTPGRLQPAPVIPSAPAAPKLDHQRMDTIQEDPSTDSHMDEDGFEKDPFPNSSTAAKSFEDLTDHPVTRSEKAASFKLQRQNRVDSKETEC
T2 sequence (Q9UNA0 262-930): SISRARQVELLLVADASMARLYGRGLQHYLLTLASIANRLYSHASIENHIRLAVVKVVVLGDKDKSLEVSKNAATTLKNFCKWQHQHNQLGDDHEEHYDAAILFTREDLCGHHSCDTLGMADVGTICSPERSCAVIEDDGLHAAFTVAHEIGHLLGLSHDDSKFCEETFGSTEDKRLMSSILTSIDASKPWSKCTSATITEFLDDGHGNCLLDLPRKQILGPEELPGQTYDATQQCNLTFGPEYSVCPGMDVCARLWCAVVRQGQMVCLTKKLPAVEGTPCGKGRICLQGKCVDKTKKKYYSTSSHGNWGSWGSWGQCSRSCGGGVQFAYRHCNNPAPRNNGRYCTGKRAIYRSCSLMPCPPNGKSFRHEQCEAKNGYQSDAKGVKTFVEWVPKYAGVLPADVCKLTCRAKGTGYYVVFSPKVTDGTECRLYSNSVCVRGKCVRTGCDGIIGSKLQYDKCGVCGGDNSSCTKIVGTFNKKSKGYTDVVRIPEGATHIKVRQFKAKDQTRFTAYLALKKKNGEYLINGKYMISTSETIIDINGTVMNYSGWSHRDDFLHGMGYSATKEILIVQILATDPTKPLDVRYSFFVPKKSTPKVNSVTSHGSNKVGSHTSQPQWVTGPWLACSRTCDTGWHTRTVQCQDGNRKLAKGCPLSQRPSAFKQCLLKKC

On to `CC1(CCC(=O)N2CCN(c3ccccc3)CC2)NC(=O)NC1=O` (stereo not shown) [compound 1, 5-methyl-5-[3-oxo-3-(4-phenylpiperazin-1-yl)propyl]imidazolidine-2,4-dione], for which the IC50 is 0.73 µM at rnADAMTS-5 (1-564-6H), greater than 20 µM on human TACE and greater than 20 µM at human MMP13 [1].

For the compound `CC1(CCC(=O)N2CCN(c3ccc(Cl)cc3)CC2)NC(=O)NC1=O` (stereo not shown) [compound 2, 5-[3-[4-(4-chlorophenyl)piperazin-1-yl]-3-oxo-propyl]-5-methyl-imidazolidine-2,4-dione], the half-inhibitory concentration (IC50) on rnADAMTS-5 (1-564-6H) is 0.361 µM; at human ADAMTS-5 [2], 0.274 µM; on human TACE, greater than 17.5 µM; on human MMP13 [1] it was 2.37 µM.

In the case of `O=C1NC(=O)C(CCC(=O)N2CCN(c3ccccc3)CC2)(c2ccccc2)N1` (stereo not shown) [compound 4, 5-[3-oxo-3-(4-phenylpiperazin-1-yl)propyl]-5-phenyl-imidazolidine-2,4-dione], the IC50 was 0.066 µM at rnADAMTS-5 (1-564-6H), 0.114 µM on human ADAMTS-5 [2], greater than 5.5 µM on human TACE and 2.52 µM on human MMP13 [1].

For the compound `O=C1NC(=O)C(CCC(=O)N2CCN(c3cccc(Cl)c3)CC2)(c2ccccc2)N1` (stereo not shown) [compound 6, 5-[3-[4-(3-chlorophenyl)piperazin-1-yl]-3-oxo-propyl]-5-phenyl-imidazolidine-2,4-dione], the results for the IC50 on rnADAMTS-5 (1-564-6H), at human TACE and on human MMP13 [1] were 0.107 µM, 2.36 µM and 2.15 µM, respectively.

`Cc1ccccc1N1CCN(C(=O)CCC2(c3ccccc3)NC(=O)NC2=O)CC1` (stereo not shown) [compound 7, 5-[3-[4-(o-tolyl)piperazin-1-yl]-3-oxo-propyl]-5-phenyl-imidazolidine-2,4-dione]: the concentration for half-maximal inhibition (IC50) was 0.272 µM on rnADAMTS-5 (1-564-6H), 0.272 µM on human ADAMTS-5 [2], greater than 2.93 µM on human TACE and greater than 20 µM at human MMP13 [1].

Turning to `Cc1cccc(N2CCN(C(=O)CCC3(c4ccccc4)NC(=O)NC3=O)CC2)c1C` (stereo not shown) [compound 8, 5-[3-[4-(2,3-dimethylphenyl)piperazin-1-yl]-3-oxo-propyl]-5-phenyl-imidazolidine-2,4-dione], the IC50 was 0.157 µM on rnADAMTS-5 (1-564-6H), 0.142 µM on human ADAMTS-5 [2], greater than 3.22 µM on human TACE and greater than 20 µM on human MMP13 [1].

Turning to `O=C1NC(=O)C(CCC(=O)N2CCN(c3ccc4ccccc4c3)CC2)(c2ccccc2)N1` (stereo not shown) [compound 9, 5-[3-[4-(2-naphthyl)piperazin-1-yl]-3-oxo-propyl]-5-phenyl-imidazolidine-2,4-dione], the IC50 on rnADAMTS-5 (1-564-6H) came out at 0.331 µM; at human ADAMTS-5 [2], 0.316 µM; at human TACE, 2.5 µM; on human MMP13 [1], 1.48 µM.

On to `O=C1NC(=O)C(CCC(=O)N2CCN(c3ccc(Cl)c(F)c3)CC2)(c2ccccc2)N1` (stereo not shown) [compound 10, 5-[3-[4-(4-chloro-3-fluoro-phenyl)piperazin-1-yl]-3-oxo-propyl]-5-phenyl-imidazolidine-2,4-dione], for which the IC50 at rnADAMTS-5 (1-564-6H) is 0.041 µM; on human ADAMTS-5 [2], 0.056 µM; on human TACE it was greater than 2.79 µM; on human MMP13 [1], 0.285 µM.

For `Cc1cccc(N2CCN(C(=O)CCC3(C)NC(=O)NC3=O)CC2)c1C` (stereo not shown) [compound 11, 5-[3-[4-(2,3-dimethylphenyl)piperazin-1-yl]-3-oxo-propyl]-5-methyl-imidazolidine-2,4-dione], the 50% inhibitory concentration (IC50) at rnADAMTS-5 (1-564-6H) is 1.17 µM; at human ADAMTS-5 [2], 0.988 µM; at human TACE, greater than 20 µM; at human MMP13 [1], greater than 20 µM.

For the compound `Cc1ccccc1N1CCN(C(=O)CCC2(C)NC(=O)NC2=O)CC1` (stereo not shown) [compound 12, 5-methyl-5-[3-[4-(o-tolyl)piperazin-1-yl]-3-oxo-propyl]imidazolidine-2,4-dione], the 50% inhibitory concentration (IC50) is 1.16 µM on rnADAMTS-5 (1-564-6H), greater than 4 µM at human TACE and greater than 20 µM on human MMP13 [1].

Regarding `Cc1cc(Cl)ccc1N1CCN(C(=O)CCC2(c3ccccc3)NC(=O)NC2=O)CC1` (stereo not shown) [compound 13, 5-[3-[4-(4-chloro-2-methyl-phenyl)piperazin-1-yl]-3-oxo-propyl]-5-phenyl-imidazolidine-2,4-dione], the IC50 at rnADAMTS-5 (1-564-6H) was 0.966 µM; at human ADAMTS-5 [2], 0.836 µM; at human TACE, 1.17 µM; on human MMP13 [1], greater than 20 µM.

For `Cc1ccccc1N1CCN(C(=O)CC[C@@]2(c3ccccc3)NC(=O)NC2=O)CC1` [compound 27, (5S)-5-[3-[4-(o-tolyl)piperazin-1-yl]-3-oxo-propyl]-5-phenyl-imidazolidine-2,4-dione], the IC50 was 0.124 µM at rnADAMTS-5 (1-564-6H); 0.09 µM on human ADAMTS-5 [2]; greater than 2 µM on human TACE; greater than 20 µM on human MMP13 [3]; greater than 20 µM at human MMP14.

With `Cc1ccc(Cl)cc1N1CCN(C(=O)CCC2(C3CC3)NC(=O)NC2=O)CC1` (stereo not shown) [compound 36, 5-[3-[4-(5-chloro-2-methyl-phenyl)piperazin-1-yl]-3-oxo-propyl]-5-cyclopropyl-imidazolidine-2,4-dione], the half-maximal inhibitory concentration (IC50) at rnADAMTS-5 (1-564-6H) is 0.029 µM; on human ADAMTS-5 [2], 0.034 µM; on human TACE, 0.67 µM; at human MMP13 [3], greater than 20 µM; on human MMP14, greater than 20 µM.

Consider `CC(CC1(C)NC(=O)NC1=O)C(=O)N1CCN(c2cccc(Cl)c2)[C@@H](C)C1` (stereo partly drawn) [compound 214, 5-[3-[(3S)-4-(3-chlorophenyl)-3-methyl-piperazin-1-yl]-2-methyl-3-oxo-propyl]-5-methyl-imidazolidine-2,4-dione], for which the half-inhibitory concentration (IC50) at rnADAMTS-5 (1-564-6H) is 0.03 µM; on human ADAMTS-5 [4] it was 0.061 µM; at human TACE, greater than 4 µM; at human MMP13 [3] it was greater than 3.51 µM; on human MMP14 it was 1.23 µM.

Take `CC(CC1(C)NC(=O)NC1=O)C(=O)N1CCN(c2cccc(F)c2)[C@@H](C)C1` (stereo partly drawn) [compound 215, 5-[3-[(3S)-4-(3-fluorophenyl)-3-methyl-piperazin-1-yl]-2-methyl-3-oxo-propyl]-5-methyl-imidazolidine-2,4-dione]: the IC50 on rnADAMTS-5 (1-564-6H) was 0.018 µM; on human ADAMTS-5 [4], 0.037 µM; at human TACE it was greater than 12 µM; at human MMP13 [3], greater than 4 µM; at human MMP14, 2.6 µM.

As to `CC(CC1(C)NC(=O)NC1=O)C(=O)N1CCN(c2ccccc2)[C@@H](C)C1` (stereo partly drawn) [compound 217, 5-methyl-5-[2-methyl-3-[(3S)-3-methyl-4-phenyl-piperazin-1-yl]-3-oxo-propyl]imidazolidine-2,4-dione], the IC50 is 0.049 µM at rnADAMTS-5 (1-564-6H); 0.059 µM at human ADAMTS-5 [4]; greater than 4 µM at human TACE; greater than 4 µM at human MMP13 [3]; greater than 4 µM at human MMP14.

In the case of `CC(CC1(CN2CCOCC2)NC(=O)NC1=O)C(=O)N1CCN(c2cc(Cl)cc(Cl)c2)CC1` (stereo not shown) [compound 242, 5-[3-[4-(3,5-dichlorophenyl)piperazin-1-yl]-2-methyl-3-oxo-propyl]-5-(morpholinomethyl)imidazolidine-2,4-dione], the half-inhibitory concentration (IC50) on rnADAMTS-5 (1-564-6H) is 0.057 µM; on human ADAMTS-5 [4], 0.066 µM; on human TACE it was 2.52 µM; on human MMP13 [3], greater than 20 µM; on human MMP14, greater than 20 µM.

For `CC(=O)N1CC(C2(CC(C)C(=O)N3CCN(c4ccc(F)c(F)c4)[C@@H](C)C3)NC(=O)NC2=O)C1` (stereo partly drawn) [compound 249, 5-(1-acetylazetidin-3-yl)-5-[3-[(3S)-4-(3,4-difluorophenyl)-3-methyl-piperazin-1-yl]-2-methyl-3-oxo-propyl]imidazolidine-2,4-dione], the 50% inhibitory concentration (IC50) is 0.034 µM on rnADAMTS-5 (1-564-6H); 0.036 µM at human ADAMTS-5 [4]; greater than 19.6 µM on human TACE; greater than 4 µM at human MMP13 [3]; 1.23 µM on human MMP14.

Source of the values: US9926281B2 (priority 2014, dated 2018).
